# Data published in patent US7008621B2, “Regulation of apoptosis in aquatic organisms by aquabirnavirus” (Academia Sinica, priority 1999, dated 2006).
# Entries after “also recorded” stand apart in the source; their conditions may differ.
# Columns and labels:
# [1] = tested on: CHSE-214-EGFP cells infected with IPNV; assay: EGFP release (membrane integrity) Western blot after drug pre-treatment and IPNV infection; format: cell-based, Chinook salmon; conditions: 16 h
# Experimental: Protein synthesis inhibitors, serine proteinase inhibitors, tyrosine kinase inhibitors, and a cation chelator were added to CHSE-214-EGFP cells before infection with IPNV (MOI of 1). After infection, the cells were incubated for 16 h. Samples were electrophoresed on a 12% SDS-polyacrylamide gel and electroblotted to a nitrocellulose membrane. Antigen-specific signals were detected with either rabbit anti-GFP serum (A and C) or a mouse IgG monoclonal antibody directed against actin (B). The chemiluminescent signal was imaged on Kodak XAR-5 film by using a 5-min (A), a 1-min (B), or a 30-min (C) exposure. (A) Lanes: 1, 0.2 μg of recombinant wild-type GFP as a positive control; 2, normal CHSE-214-EGFP cell lysate; 3, 30 μg of cell lysate protein corresponding to IPNV infection; 4–9, 30 μg of cell lysate protein corresponding to pre-treatment with cycloheximide (CHX) (100 μg/ml), aprotinin (400 μg/ml), leupeptin (400 μg/ml), genistein (100 μg/ml), tyrphostin (100 μg/ml), and EDTA (2 mM) and then followed by virus infection for 16 h, respectively. (B) The nitrocellulose membrane from panel A was stripped and reprobed with an actin antibody. (C) Lanes: 1, 100 ng of wide-type GFP; 2, 30 μg of supernatant medium protein from normal CHSE-214 cells; 3, 30 μg of supernatant medium protein from IPNV-infected cells at 16 h p.i. 4–9, 30 μg of supernatant medium protein corresponding to treatment with cycloheximide (CHX) (100 μg/ml), aprotinin (400 μg/ml), leupeptin (400 μg/ml), genistein (100 μg/ml), tyrphostin (100 μg/ml), and EDTA (2 mM) and then followed by virus infection for 16 h, respectively.
# About 10^5 cells per ml were seeded on a 60-mm-diameter petri dish and allowed to grow for more than 20 h. The cell monolayers were rinsed twice with phosphate-buffered saline (PBS), after which they were infected at an MOI of 1 and incubated for 0, 2, 4, 6, 8, 10, 12, and 24 h post infection (p.i.). Uninfected control cells were also incubated for the same periods of time. At the end of each incubation time, the culture medium was aspirated. The cells were washed with PBS and then lysed in 0.3 ml of lysis buffer (10 mM Tris base, 20% glycerol, 10 mM sodium dodecyl sulfate [SDS], 2% β-mercaptoethanol, pH 6.8).
# Proteins were separated by SDS-polyacrylamide gel electrophoresis, electroblotted, and subjected to immunodetection as described by Kain et al. (1994), Bio Techniques, 17:982–987. Blots were incubated with a 1:7,500 dilution of an immunoglobulin fraction (Clontech) and a 1:1,500 dilution of a peroxidase-labeled goat anti-rabbit conjugate (Amersham). Chemilumine-scence detection was performed in accordance with the instructions provided with the Western Exposure Chemiluminescent Detection System (Amersham). Chemiluminescent signals were imaged by exposure of Kodak XAR-5 film (Eastman Kodak, Rochester, N.Y.). Stripping and reprobing of the Western blot and removal of the primary and secondary antibodies from blot were achieved by incubation in stripping buffer containing 62.5 mM Tris-HCl (pH 6.8), 3.0% (wt/vol) SDS, and 50 mM 1,4-dithiothreitol for 30 min at 55° C. with gentle shaking. The blot was washed three times in PBS containing 0.1% (vol/vol) Tween 20 for 10 min each time and reprobed with antibodies beginning at the membrane blocking step.
# At the end of the incubation period, cells were harvested and samples were analyzed by Western blotting.
# Mcl-1 protein = assay: Prevention of down-regulation of Mcl-1 protein expression by IPNV, Western blot; format: cell-based, Chinook salmon; conditions: 16 h
# Experimental: (§1) After adding protein synthesis inhibitor, serine proteinase inhibitors, tyrosine kinase inhibitors and a cation chelator, CHSE-214-EGFP cells were infected with IPNV (MOI of 1) then incubated for 16 h at 18° C. Samples were electrophoresed on a 12% SDS-polyacrylamide gel and electroblotted to a nitrocellulose membrane. Antigen-specific signals were detected with a rabbit anti-EI-S virion antiserum (A) or with a rabbit anti-human Mcl-1 antiserum (Pharmingen) (B) and with a mouse monoclonal IgG antibody directed against mouse actin (Chemicon) (C). (A) Lane 1, normal CHSE-214 cell lysate; lane 2, IPNV infected cell lysate at 16 h postinfection; lanes 3–8, 30 μg of cell lysate, to which was added cycloheximide (100 μg/ml), aprotinin (400 μg/ml), leupeptin (400 μg/ml), genistein (100 μg/ml), tyrphostin (100 μg/ml) and EDTA (2 mM), followed by IPNV infection and incubated cells for 16 h, respectively. (B,C) The nitrocellulose membrane from (A) was stripped and reprobed with Mcl-1 or an actin antibody, respectively.
# (§2) About 10^5 cells/ml were seeded on a 60-mm. petri dish for growth for more than 20 h. Monolayers were rinsed twice with phosphate-buffered saline (PBS). Control cells or cells that received virus at a MOI of 1 were incubated for 0, 2, 4, 6, 8, 10 and 24 h. At the end of each incubation time the culture medium was aspirated. The cells were washed with PBS and then lysed in 0.3 nil lysis buffer [10 mM Tris base, 20% glycerol, 10 mM sodium dodecyl sulfate (SDS), 2% β-mercaptoethanol (P-ME), pH 6.8].
# (§3) Proteins were separated by SDS-polyacrylamide gel electrophoresis (Laemmli, 1970), electroblotted, and subjected to immunodetection as described by Kain et al. (1994). Blots were incubated with a 1:1500 dilution of anti-human Mcl-1 polyclonal antibodies (Pharmingen) or a 1:7500 dilution of a peroxidase-labeled goat anti-rabbit conjugate (Amershan). Chemi-luminescent detection was performed according to the instructions provided with the Western Exposure Chemiluminescent Dectection System (Amershan). Chemiluminescent signals were imaged by exposure to Kodak XAR-5 film (Eastman Kodak, Rochester, N.Y., USA). Primary (Mcl-1) and secondary antibodies (peroxidase-labeled goat anti-rabbit conjugate) were stripped from blots by incubation in stripping buffer containing 62.5 mM Tris-HCI (pH 6.8), 3.0% (w/v) SDS and 50 mM 1,4-dithiothreitol for 30 min at 55° C. with gentle shaking. The blots were then washed four times for 10 min each time in PBS containing 0.1% (v/v) Tween 20 and reprobed with mouse actin monoclonal antibody (1/1500, Chemicon) and a 1:7500 dilution of a peroxidase-labeled sheep anti-mouse conjugate (Amersham).
# (§4) At the end of the incubation period, cells were harvested and the samples were analyzed by Western blot method.
# IPNV E1-S = assay: Blocking of viral replication / viral protein expression, Western blot with anti-E1-S virion antiserum; format: cell-based, infectious pancreatic necrosis virus; conditions: 16 h
# Experimental: as §1, §2, §3, §4
# [2] = tested on: CHSE-214 cells infected with IPNV E1-S; assay: DNA internucleosomal cleavage induced by IPNV, agarose gel electrophoresis; format: cell-based, Chinook salmon; conditions: 16 h postinfection
# Experimental: Lane 2: DNA isolated from uninfected CHSE-214 cells as a negative control. Lane 3: cells infected for 16 h with an MOI of 1 of E1-S, respectively, at 16 h postinfection. Lanes 6 and 7: CHSE-214 cells treated with aprotinin (400 μg/ml) in the absence and presence of infection by an MOI of 1 of E1-S, respectively, at 16 h postinfection. Lanes 8 and 9: CHSE-214 cells treated with leupeptin (400 μg/ml) in the absence and presence of infection by an MOI of 1 of E1-S, respectively, at 16 h postinfection. Lanes 10 and 11: CHSE-214 cells treated with genistein (100 μg/ml) in the absence and presence of infection by an MOI of 1 of E1-S, respectively; at 16 h postinfection. Lanes 12 and 13: CHSE-214 cells treated with tyrphostin (100 μg/ml) in the absence and presence of infection by an MOI of 1 of E1-S, respectively, at 16 h postinfection. Lanes 14 and 15: CHSE-214 cells treated with 2 mM EDTA in the absence and presence of infection by an MOI of 1 of E1-S, respectively, at 16 h postinfection. All samples were electrophoresed through 1.2% agarose gels and visualized by ethidium bromide staining. Lane 1 contains the molecular weight marekers used in the gel (1 kb DNA ladder from MBI for sizing linear fragments ranging in size from 500 bp to […]).
# About 10^5 cells per ml were seeded on a 60-mm-diameter petri dish and allowed to grow for more than 20 h. The cell monolayers received virus at an MOI of 1.0 and were incubated for 8 h. Uninfected control cells were also incubated for 8 h. The two groups were used for DNA fragmentation studies. At the end of incubation, the cells were lysed with lysis buffer (10 mM Tris-HCl, 0.25% Triton X-100, 1 mM EDTA, pH 7.4). After treatment with phenol-chloroform-isoamyl alcohol (25:24:1), the DNA was precipitated in the presence of 0.3 M sodium acetate and cold absolute ethanol at −70° C. for 2 h and then resuspended in 10 mM Tris-HCl (pH 7.4)−1 mM EDTA. […]
# [3] = 400 μg/ml added before IPNV infection (MOI 1)
# [4] = 400 μg/ml before IPNV infection
compound,measurement,setting,value
CC(=O)N[C@@H](CC(C)C)C(=O)N[C@@H](CC(C)C)C(=O)N[C@H](C=O)CCCNC(=N)N [leupeptin],prevention of EGFP release,[1]; [3],did not prevent EGFP release
same,prevention of down-regulation of Mcl-1 protein expression,Mcl-1 protein; [4],could not
aprotinin,prevention of EGFP release,[1]; [3],did not prevent EGFP release
same,prevention of down-regulation of Mcl-1 protein expression,Mcl-1 protein; [4],could not
O=c1c(-c2ccc(O)cc2)coc2cc(O)cc(O)c12 [genistein],prevention of EGFP release,[1]; 100 μg/ml added before IPNV infection (MOI 1),partially prevented EGFP release
same,viral replication / viral protein expression,IPNV E1-S; 100 μg/ml added to CHSE-214 cells before IPNV infection,viral replication was prevented; also recorded: blocked viral protein expression
same,prevention of down-regulation of Mcl-1 protein expression,Mcl-1 protein; 100 μg/ml before IPNV infection,partially prevented down-regulation of Mcl-1 protein expression; also recorded: helped to maintain Mcl-1 expression level
same,induction of DNA internucleosomal cleavage by IPNV,[2]; 100 μg/ml before IPNV infection (MOI 1),blocked the induction of DNA internucleosomal cleavage
"C[C@@H]1C[C@@H]([C@H](O)CC2CC(=O)NC(=O)C2)C(=O)[C@@H](C)C1 [CHX, cycloheximide]",prevention of EGFP release,[1]; 10 μg/ml added before IPNV infection (MOI 1),completely prevented EGFP release
same,viral replication / viral protein expression,IPNV E1-S; 10 μg/ml added to CHSE-214 cells before IPNV infection,blocked viral protein expression
same,viral replication / viral protein expression,"IPNV E1-S; 10 μg/ml added to CHSE-214 cells before IPNV infection, listed as cyclohexamide",viral replication was prevented
same,prevention of down-regulation of Mcl-1 protein expression,Mcl-1 protein; 10 μg/ml before IPNV infection,helped to maintain Mcl-1 expression level
same,prevention of down-regulation of Mcl-1 protein expression,"Mcl-1 protein; 10 μg/ml before IPNV infection, listed as cyclohexamide",partially prevented down-regulation of Mcl-1 protein expression
same,induction of DNA internucleosomal cleavage by IPNV,[2]; 10 μg/ml before IPNV infection (MOI 1),blocked the induction of DNA internucleosomal cleavage
O=C(O)CN(CCN(CC(=O)O)CC(=O)O)CC(=O)O [EDTA],prevention of EGFP release,[1]; 2 mM added before IPNV infection (MOI 1),completely prevented EGFP release
same,viral replication / viral protein expression,IPNV E1-S; 2 mM added to CHSE-214 cells before IPNV infection,viral replication was prevented; also recorded: blocked viral protein expression
same,prevention of down-regulation of Mcl-1 protein expression,Mcl-1 protein; 2 mM before IPNV infection,partially prevented down-regulation of Mcl-1 protein expression; also recorded: helped to maintain Mcl-1 expression level
same,induction of DNA internucleosomal cleavage by IPNV,[2]; 2 mM before IPNV infection (MOI 1),minor internucleosomal cleavage; also recorded: blocked the induction of DNA internucleosomal cleavage
